Assay type in all cases: cell-based
In assay [1] the test system is β-catenin-TCF-mediated reporter transcription activity in Colo 205 cells. Nature of the assay: Colo 205 reporter assay (TCF/LEF promoter-driven firefly luciferase). As to conditions: Homo sapiens; Colo 205 TCF/LEF luciferase reporter, 5 hours after compound addition, 384 well; read-out: Colo205 IC50.
The subject of assay [2] is XBP1(u)-luciferase splicing reporter in HepG2 hepatoma cells. As to the kind of experiment: HepG2 XBP1 reporter assay (XBP1(u)-Luc). The note with it: Homo sapiens, 6 hours after compound addition, Table 3, read-out: XBP1-luc HepG2 1 EC50.
Assay [3] relates to intracellular calcium flux in Colo-205 cells. As to the kind of experiment: Calcium flux assay (FLIPR Calcium 5 Assay Kit, FLIPR3). The note with it: Homo sapiens, 0.6 h, calcium flux measured over 36 minutes, read-out: Colo 205 Calcium Flux assay 384w Boston Ca assay FLIPR3 Colo EC50. On the procedure: Compounds described herein induced ER stress by causing intracellular calcium flux. Calcium flux was measured in Colo-205 cells using the FLIPR® Calcium 5 Assay Kit according to manufacturer's protocol (Molecular Devices, Cat. #R8186) on a FLIPR3 system (Molecular Devices). Calcium flux is measured over 36 minutes. The Colo-205 calcium flux assay data are summarized in Table 3: A<0.6 μM; 0.6 μM≤B<2.0 μM; 2.0 μM≤C<10.0 μM; D≥10.0 μM.

With `CC(C)c1cc(N2CCCCCC2c2ccccc2Cl)nc(N)n1` (racemic) [I-16, (+/−)-4-(2-(2-chlorophenyl)azepan-1-yl)-6-isopropylpyrimidin-2-amine], in assay [1], the IC50 lay within 300 to 1000 nM. Also, the 50% effective concentration (EC50) was 2000 to 5000 nM in assay [2] and 600 to 2000 nM in assay [3].
For `CCc1cc(N2CCCCCC2c2ccccc2Cl)nc(N)n1` (racemic) [I-17, (+/−)-4-(2-(2-chlorophenyl)azepan-1-yl)-6-ethylpyrimidin-2-amine], in that order: 300 to 1000 nM, less than 600 nM and 600 to 2000 nM.
Turning to `Cc1cc(N2CCCCCC2c2ccc(S(C)(=O)=O)cc2C)nc(N)n1` (racemic) [I-37, (+/−)-4-methyl-6-(2-(2-methyl-4-(methylsulfonyl)phenyl)azepan-1-yl)pyrimidin-2-amine], the IC50 in assay [1] lay within 300 to 1000 nM. The EC50 in assay [3] is less than 600 nM.
For the compound `COc1ccc(C2CCCCCN2c2cc(C)nc(N)n2)c(OC)c1` (racemic) [I-51, (+/−)-4-[2-(2,4-dimethoxyphenyl)azepan-1-yl]-6-methyl-pyrimidin-2-amine], in assay [1], the IC50 fell in the range of 300 to 1000 nM. Besides, the concentration for a half-maximal effect (EC50) in assay [2] and in assay [3] was less than 600 nM throughout.
Take `Cc1cc(N2CCCOCC2c2c(F)cccc2Cl)nc(N)n1` (racemic) [I-59, (+/−)-4-(3-(2-chloro-6-fluorophenyl)-1,4-oxazepan-4-yl)-6-methylpyrimidin-2-amine]: the IC50 in assay [1] lay in the range of 300 to 1000 nM. Besides, the EC50 in assay [3] was less than 600 nM.
For `Cc1cc(N2CCCOCC2c2cc(F)ccc2Cl)nc(N)n1` (racemic) [I-70, (+/−)-4-[3-(2-chloro-5-fluoro-phenyl)-1,4-oxazepan-4-yl]-6-methyl-pyrimidin-2-amine], in assay [1], the IC50 is 300 to 1000 nM. In assay [3], the 50% effective concentration (EC50) is less than 600 nM.
For `Cc1cc(N2CCCOCC2c2cc(N)ccc2Cl)nc(N)n1` (racemic) [I-71, (+/−)-4-(3-(5-amino-2-chlorophenyl)-1,4-oxazepan-4-yl)-6-methylpyrimidin-2-amine], in that order: less than 300 nM and less than 600 nM.
Consider `Cc1cc(N2CCCOCC2c2cc(NS(C)(=O)=O)ccc2Cl)nc(N)n1` (racemic) [I-74, (+/−)-N-(3-(4-(2-amino-6-methylpyrimidin-4-yl)-1,4-oxazepan-3-yl)-4-chlorophenyl)methanesulfonamide], for which the IC50 in assay [1] was less than 300 nM. In assay [3], the EC50 was less than 600 nM.
For `CNC(=O)c1ccc(OC)c(C2COCCCN2c2cc(C)nc(N)n2)c1` (racemic) [I-82, (+/−)-3-(4-(2-amino-6-methylpyrimidin-4-yl)-1,4-oxazepan-3-yl)-4-methoxy-N-methylbenzamide] the same measures were 300 to 1000 nM and 600 to 2000 nM.
On to `CCNC(=O)c1ccc(C2COCCCN2c2cc(C)nc(N)n2)c(Cl)c1` (racemic) [I-171, (+/−)-4-[4-(2-amino-6-methyl-pyrimidin-4-yl)-1,4-oxazepan-3-yl]-3-chloro-N-ethyl-benzamide], for which the IC50 in assay [1] lay within 1000 to 5000 nM. Besides, the EC50 in assay [2] was 600 to 2000 nM; in assay [3], less than 600 nM.
As for `Cc1cc(N2CCCOCC2c2cc(C(=O)NC3CC3)ccc2Cl)nc(N)n1` (racemic) [I-172, (+/−)-3-(4-(2-amino-6-methylpyrimidin-4-yl)-1,4-oxazepan-3-yl)-4-chloro-N-cyclopropylbenzamide], in assay [1], the IC50 is 300 to 1000 nM. For the same compound, the EC50 in assay [2] was 2000 to 5000 nM; in assay [3], less than 600 nM.
As to `CCNC(=O)c1ccc(Cl)c(C2COCCCN2c2cc(C)nc(N)n2)c1` (racemic) [I-173, (+/−)-3-[4-(2-amino-6-methyl-pyrimidin-4-yl)-1,4-oxazepan-3-yl]-4-chloro-N-ethyl-benzamide], the half-inhibitory concentration (IC50) in assay [1] was in the range of 300 to 1000 nM. Further, the EC50 was 600 to 2000 nM in assay [2] and less than 600 nM in assay [3].
For `CNc1ccc(Cl)c(C2COCCCN2c2cc(C)nc(N)n2)c1` (racemic) [I-175, (+/−)-4-[3-[2-chloro-5-(methylamino)phenyl]-1,4-oxazepan-4-yl]-6-methyl-pyrimidin-2-amine], in assay [1], the IC50 is less than 300 nM. Besides, the EC50 in assay [2] and in assay [3] was less than 600 nM each time.
Take `Cc1cc(N2CCCOCC2c2cc(NC(=O)C3CCO3)ccc2Cl)nc(N)n1` (racemic) [I-184, (+/−)-N-[3-[4-(2-amino-6-methyl-pyrimidin-4-yl)-1,4-oxazepan-3-yl]-4-chloro-phenyl]oxetane-2-carboxamide]: the IC50 in assay [1] was 300 to 1000 nM. The figures for the concentration for a half-maximal effect (EC50) in assay [2] and in assay [3] were 2000 to 5000 nM and less than 600 nM, respectively.
On to `Cc1cc(N2CCCOCC2c2cc(NC(=O)CC3COC3)ccc2Cl)nc(N)n1` (racemic) [I-185, (+/−)-N-[3-[4-(2-amino-6-methyl-pyrimidin-4-yl)-1,4-oxazepan-3-yl]-4-chloro-phenyl]-2-(oxetan-3-yl)acetamide], for which the IC50 in assay [1] was in the range of 300 to 1000 nM. The concentration giving a half-maximal response (EC50) in assay [2] is 2000 to 5000 nM; in assay [3] it was less than 600 nM.
As to `Cc1cc(N2CCCOCC2c2ccc(N(C)C3COC3)cc2Cl)nc(N)n1` (racemic) [I-186, (+/−)-4-[3-[2-chloro-4-[methyl(oxetan-3-yl)amino]phenyl]-1,4-oxazepan-4-yl]-6-methyl-pyrimidin-2-amine], the IC50 in assay [1] was less than 300 nM. Further, the EC50 in assay [2] and in assay [3] was less than 600 nM each time.
With `Cc1cc(N2CCCOCC2c2cc3nccn3cc2Cl)nc(N)n1` (racemic) [I-191, 4-(3-(6-chloroimidazo[1,2-a]pyridin-7-yl)-1,4-oxazepan-4-yl)-6-methylpyrimidin-2-amine], the IC50 in assay [1] was in the range of 300 to 1000 nM. The results for the concentration for a half-maximal effect (EC50) in assay [2] and in assay [3] were 600 to 2000 nM and less than 600 nM, respectively.
For `COCC(=O)Nc1ccc(C2COCCCN2c2cc(C)nc(N)n2)c(Cl)c1` (racemic) [I-192, (+/−)-N-[4-[4-(2-amino-6-methyl-pyrimidin-4-yl)-1,4-oxazepan-3-yl]-3-chloro-phenyl]-2-methoxy-acetamide] the same measures were 300 to 1000 nM, less than 600 nM and less than 600 nM.
As for `Cc1cc(N2CCCOCC2c2ccc(N3CCCS3(=O)=O)cc2Cl)nc(N)n1` (racemic) [I-193, (+/−)-4-[3-[2-chloro-4-(1,1-dioxo-1,2-thiazolidin-2-yl)phenyl]-1,4-oxazepan-4-yl]-6-methyl-pyrimidin-2-amine], in assay [1], the IC50 was less than 300 nM. Moreover, the concentration for a half-maximal effect (EC50) in assay [2] and in assay [3] was less than 600 nM in each case.
For `Cc1cc(N2CCCOCC2c2cc(N3CCCC3)ccc2Cl)nc(N)n1` (racemic) [I-199, (+/−)-4-[3-(2-chloro-5-pyrrolidin-1-yl-phenyl)-1,4-oxazepan-4-yl]-6-methyl-pyrimidin-2-amine], in assay [1], the IC50 lay within 300 to 1000 nM. Further, the EC50 in assay [2] was 600 to 2000 nM; in assay [3] it was less than 600 nM.
For `Cc1cc(N2CCCOCC2c2ccc(P(C)(C)=O)cc2Cl)nc(N)n1` (racemic) [I-202, (+/−)-4-[3-(2-chloro-4-dimethylphosphoryl-phenyl)-1,4-oxazepan-4-yl]-6-methyl-pyrimidin-2-amine], in that order: 300 to 1000 nM, not below 5000 nM and 600 to 2000 nM.
For `COCc1ccc(C2COCCCN2c2cc(C)nc(N)n2)c(Cl)c1` (racemic) [I-205, (+/−)-4-[3-[2-chloro-4-(methoxymethyl)phenyl]-1,4-oxazepan-4-yl]-6-methyl-pyrimidin-2-amine] the same measures were 300 to 1000 nM, less than 600 nM and less than 600 nM.
As to `Cc1cc(N2CCCOCC2c2ccc(CS(C)(=O)=O)cc2Cl)nc(N)n1` (racemic) [I-208, (+/−)-4-(3-(2-chloro-4-((methylsulfonyl)methyl)phenyl)-1,4-oxazepan-4-yl)-6-methylpyrimidin-2-amine], in assay [1], the IC50 is less than 300 nM. Also, the EC50 in assay [2] and in assay [3] was less than 600 nM each time.
Regarding `Cc1cc(N2CCCOCC2c2cc(N3CCOCC3)ccc2Cl)nc(N)n1` (racemic) [I-226, (+/−)-4-(3-(2-chloro-5-morpholinophenyl)-1,4-oxazepan-4-yl)-6-methylpyrimidin-2-amine], the IC50 in assay [1] fell in the range of 300 to 1000 nM. Further, the concentration for a half-maximal effect (EC50) in assay [2] and in assay [3] was less than 600 nM in each case.
For the compound `COc1ccc(OC)c([C@H]2CCCCCN2c2cc(C)nc(N)n2)c1` (single isomer, unassigned) [I-40], in assay [1], the half-inhibitory concentration (IC50) was less than 300 nM. Besides, the EC50 in assay [2] and in assay [3] was less than 600 nM throughout.
With `Cc1cc(N2CCCOC[C@@H]2c2ccc(F)cc2F)nc(N)n1` (single isomer, unassigned) [I-62], the concentration for half-maximal inhibition (IC50) in assay [1] was in the range of 300 to 1000 nM. Moreover, the EC50 in assay [3] is less than 600 nM.
For `Cc1cc(N2CCCOC[C@@H]2c2cc(F)ccc2Cl)nc(N)n1` (single isomer, unassigned) [I-79], in that order: less than 300 nM and less than 600 nM.
Regarding `Cc1cc(N2CCCOC[C@@H]2c2cc(O)ccc2Cl)nc(N)n1` (single isomer, unassigned) [I-170], in assay [1], the IC50 is less than 300 nM. Besides, in assay [3], the EC50 was less than 600 nM.
As for `Cc1cc(N2CCCCC[C@@H]2c2ccc(F)cc2C2CC2)nc(N)n1` [I-47, (R)-4-(2-(2-cyclopropyl-4-fluorophenyl)azepan-1-yl)-6-methylpyrimidin-2-amine], in assay [1], the IC50 lay in the range of 300 to 1000 nM. Besides, the 50% effective concentration (EC50) in assay [3] is 600 to 2000 nM.
Regarding `CNC(=O)c1ccc(F)c(C2CCCCCN2c2cc(C)nc(N)n2)c1` (stereo not drawn) [I-55, 3-(1-(2-amino-6-methylpyrimidin-4-yl)azepan-2-yl)-4-fluoro-N-methylbenzamide], the IC50 in assay [1] was 300 to 1000 nM. For the same compound, the half-maximal effective concentration (EC50) in assay [3] is less than 600 nM.
Consider `COC(=O)c1ccc(OC)c(C2COCCCN2c2cc(C)nc(N)n2)c1` (stereo not drawn) [I-289], for which, in assay [1], the concentration for half-maximal inhibition (IC50) was in the range of 300 to 1000 nM. In assay [3], the 50% effective concentration (EC50) is less than 600 nM.

The values are drawn from patent US11440907B1 (Merck Patent GmbH, priority 2018, dated 2022).
